Data on five substances can be found in patent US10478407B2, “Pharmaceutical composition for viral infections” (The Administrators of the Tulane Educational Fund, priority 2018, dated 2019).

One assay deals with Ebola virus (Zaire 76). The note with it: 5 μg/ml; FIG. 17.
Assay [1] concerns Herpes simplex virus type 1, ATCC VR-733, Strain F(1). Put plainly: Virucidal suspension test of solutions A-18 to D-18 against HSV-1, Vero indicator cells (Example 18). Format: cell-based. The settings on record: for viral inhibitory effect: comparable concentrations. As for the experimental part: A suspension of virus was exposed to the use dilutions of the products. At the end of the exposure time, an aliquot was removed, neutralized by serial dilution, and assayed for the presence of virus. The virus controls, cytotoxicity controls, and neutralization controls were assayed in parallel. Antiviral properties of the solutions were evaluated and compared at the specified concentrations and time intervals.
Dilutions: 1:5 defined as 1 ml test substance+4 parts sterile PBS=0.2 mg/ml
• 1:10 defined as 1 ml test substance+9 parts sterile PBS=0.1 mg/ml • 1:15 defined as 1 ml test substance+14 parts sterile PBS=0.07 mg/ml • 1:20 defined as 1 ml test substance+19 parts sterile PBS=0.05 mg/ml • 1:25 defined as 1 ml test substance+24 parts sterile PBS=0.04 mg/ml Virus: Herpes simplex virus type 1, ATCC VR-733, Strain F(1) Exposure Time: 30 minutes Exposure Temperature: Room temperature (22.0° C.) Organic Soil Load: 1% fetal bovine serum Test Medium: Minimum Essential Medium (MEM) supplemented with 5% (v/v) heat-inactivated fetal bovine serum (FBS), […], 100 units/ml penicillin, and 2.5 μg/ml amphotericin B. Indicator Cell Cultures: Vero Results
A similar experiment was run with 15 minutes contact time. The graphical representation can be seen in FIG. 6.

Assay [2] shares this test system. The experiment in a line: Virucidal suspension test of solutions A-17 and B-17 against HSV-1, Vero indicator cells (Example 17). Format: cell-based. As for the experimental part:
A suspension of virus was exposed to the use dilutions of the products. At the each pre-determined exposure time an aliquot was removed, neutralized by serial dilution, and assayed for the presence of virus. The virus controls, cytotoxicity controls, and neutralization controls were assayed in parallel. Antiviral properties of the solutions were evaluated and compared at the specified concentrations and time intervals.
Dilutions: FS (undiluted) defined as 1 ml test substance+0 ml PBS
• 1:10 defined as 1 ml test substance+9 ml PBS • 1:100 defined as 1 ml of the 1:10 dilution+9 ml PBS Virus: Herpes simplex virus type 1, ATCC VR-733, Strain F(1) Exposure Time: 15 minutes and 60 minutes Exposure Temperature: Room temperature (22.0° C.) Organic Soil Load: 1% fetal bovine serum Test Medium: Minimum Essential Medium (MEM) supplemented with 5% (v/v) heat-inactivated fetal bovine serum (FBS), 10 μg/ml gentamicin, 100 units/ml penicillin, and 2.5 μg/ml amphotericin B. Indicator Cell Cultures: Vero Results

Where [3] appears, read: 15 minutes contact time, FIG. 6.
The mark [4] stands for this setting: dilution 1:5 = 0.2 mg/ml, 30 minutes exposure, 22.0° C.
Setting [5] is: dilution 1:10 = 0.1 mg/ml, 30 minutes exposure.
Where [6] appears, read: dilution 1:15 = 0.07 mg/ml, 30 minutes exposure.
[7] abbreviates: dilution 1:20 = 0.05 mg/ml, 30 minutes exposure.
Setting [8] is: dilution 1:25 = 0.04 mg/ml, 30 minutes exposure.
Where [9] appears, read: FS (undiluted), 15 minutes exposure, 22.0° C., stock A-17 1 mg/mL, B-17 10 mg/mL.
Setting [10] is: FS (undiluted), 60 minutes exposure.
Where [11] appears, read: dilution 1:10, 15 minutes exposure.
The mark [12] stands for this setting: dilution 1:10, 60 minutes exposure.
[13] abbreviates: dilution 1:100, 15 minutes exposure.
[14] abbreviates: dilution 1:100, 60 minutes exposure.

Regarding “C12-alkyl(ethylbenzyl) dimethylammonium chloride”, the “deactivation of Ebola virus” value in the assay on Ebola virus (Zaire 76) was “Complete deactivation”.

Turning to “C12-alkyl(ethylbenzyl) dimethylammonium chloride [Formulation A-18]”, the “% Reduction” value in assay [1] (setting [3]) is on record as 99.997%; in assay [1] (setting [4]) it was no less than 99.997%; in assay [1] (setting [5]), 99.4%; in assay [1] (setting [6]), 98.2%; in assay [1] (setting [7]) it was 96.8%; in assay [1] (setting [8]), 90.0%. In assay [1] (setting [3]), the log10 reduction is given as 6.75 log10. Moreover, the “viral inhibitory effect” value in assay [1] (setting [3]) is recorded as “complete inactivation”. The “Log10 Reduction” value is recorded as no less than 4.5 log10 in assay [1] (setting [4]); 2.25 log10 in assay [1] (setting [5]); 1.75 log10 in assay [1] (setting [6]); 1.5 log10 in assay [1] (setting [7]); 1 log10 in assay [1] (setting [8]).

In the case of “C14-alkyl(ethylbenzyl) dimethylammonium chloride [Formulation B-18]”, the “% Reduction” value was 94.4% in assay [1] (setting [4]); 43.8% in assay [1] (setting [5]); “No Reduction” in assay [1] (setting [6]); “No Reduction” in assay [1] (setting [7]); “No Reduction” in assay [1] (setting [8]). For the same substance, the “Log10 Reduction” value in assay [1] (setting [4]) was 1.24 log10; in assay [1] (setting [5]) it was 0.25 log10; in assay [1] (setting [6]) it was “No Reduction”; in assay [1] (setting [7]), “No Reduction”; in assay [1] (setting [8]) it was “No Reduction”.

For the substance “benzalkonium chloride [Formulation B-17]”, the “% reduction in viral titer” value in assay [2] (setting [9]) was no less than 99.99%; in assay [2] (setting [10]) it was no less than 99.98%; in assay [2] (setting [11]), no less than 99.999%; in assay [2] (setting [12]), no less than 99.998%; in assay [2] (setting [13]), 90.0%; in assay [2] (setting [14]), 99.7%. For the same substance, the “log10 reduction in viral titer” value is given as no less than 4.00 log10 in assay [2] (setting [9]); no less than 3.75 log10 in assay [2] (setting [10]); no less than 5.00 log10 in assay [2] (setting [11]); no less than 4.75 log10 in assay [2] (setting [12]); 1 log10 in assay [2] (setting [13]); 2.5 log10 in assay [2] (setting [14]).

With “benzalkonium chloride [Formulation C-18, reference compound]”, the “viral inhibitory effect” value in assay [1] (setting [3]) was “no viral inhibitory effect”. For the same substance, the “% Reduction” value was 43.8% in assay [1] (setting [4]); “No Reduction” in assay [1] (setting [5]); “No Reduction” in assay [1] (setting [6]); “No Reduction” in assay [1] (setting [7]); “No Reduction” in assay [1] (setting [8]). Further, the “Log10 Reduction” value in assay [1] (setting [4]) is on record as 0.25 log10; in assay [1] (setting [5]), “No Reduction”; in assay [1] (setting [6]), “No Reduction”; in assay [1] (setting [7]) it was “No Reduction”; in assay [1] (setting [8]), “No Reduction”.
